# The NIST ThermoML archive (doi:10.1021/je060411g)
# Numbers after ± are expanded uncertainties.
# Assay: molar heat capacity at constant pressure
# Conditions: 101.33 kPa, Crystal 2
smiles,measurement,setting,value
"CC(C)(C)CO [2,2-dimethyl-1-propanol]",molar heat capacity at constant pressure,"6.04 K, Vacuum adiabatic calorimetry",1.42 ± 0.03 J/K/mol
same,molar heat capacity at constant pressure,"6.22 K, Vacuum adiabatic calorimetry",1.34 ± 0.04 J/K/mol
same,molar heat capacity at constant pressure,"6.72 K, Vacuum adiabatic calorimetry",1.62 ± 0.04 J/K/mol
same,molar heat capacity at constant pressure,"6.93 K, Vacuum adiabatic calorimetry",1.79 ± 0.04 J/K/mol
same,molar heat capacity at constant pressure,"7.63 K, Vacuum adiabatic calorimetry",2.48 ± 0.06 J/K/mol
same,molar heat capacity at constant pressure,"7.66 K, Vacuum adiabatic calorimetry",2.49 ± 0.06 J/K/mol
same,molar heat capacity at constant pressure,"8.46 K, Vacuum adiabatic calorimetry",3.25 ± 0.07 J/K/mol
same,molar heat capacity at constant pressure,"8.71 K, Vacuum adiabatic calorimetry",3.26 ± 0.07 J/K/mol
same,molar heat capacity at constant pressure,"9.38 K, Vacuum adiabatic calorimetry",3.5 ± 0.08 J/K/mol
same,molar heat capacity at constant pressure,"9.84 K, Vacuum adiabatic calorimetry",3.94 ± 0.08 J/K/mol
same,molar heat capacity at constant pressure,10 K,4.09 ± 0.26 J/K/mol
same,molar heat capacity at constant pressure,"10.52 K, Vacuum adiabatic calorimetry",4.52 ± 0.1 J/K/mol
same,molar heat capacity at constant pressure,"11.19 K, Vacuum adiabatic calorimetry",4.61 ± 0.1 J/K/mol
same,molar heat capacity at constant pressure,"11.74 K, Vacuum adiabatic calorimetry",4.61 ± 0.1 J/K/mol
same,molar heat capacity at constant pressure,"12.6 K, Vacuum adiabatic calorimetry",5.48 ± 0.12 J/K/mol
same,molar heat capacity at constant pressure,"12.96 K, Vacuum adiabatic calorimetry",6.1 ± 0.13 J/K/mol
same,molar heat capacity at constant pressure,"13.95 K, Vacuum adiabatic calorimetry",7.71 ± 0.16 J/K/mol
same,molar heat capacity at constant pressure,"14.12 K, Vacuum adiabatic calorimetry",7.8 ± 0.16 J/K/mol
same,molar heat capacity at constant pressure,15 K,9 ± 0.44 J/K/mol
same,molar heat capacity at constant pressure,"15.22 K, Vacuum adiabatic calorimetry",9.22 ± 0.19 J/K/mol
same,molar heat capacity at constant pressure,"15.26 K, Vacuum adiabatic calorimetry",9.22 ± 0.19 J/K/mol
same,molar heat capacity at constant pressure,"16.54 K, Vacuum adiabatic calorimetry",10.78 ± 0.22 J/K/mol
same,molar heat capacity at constant pressure,"16.63 K, Vacuum adiabatic calorimetry",10.92 ± 0.23 J/K/mol
same,molar heat capacity at constant pressure,"17.89 K, Vacuum adiabatic calorimetry",12.37 ± 0.26 J/K/mol
same,molar heat capacity at constant pressure,"18.17 K, Vacuum adiabatic calorimetry",12.68 ± 0.26 J/K/mol
same,molar heat capacity at constant pressure,"19.28 K, Vacuum adiabatic calorimetry",14.02 ± 0.29 J/K/mol
same,molar heat capacity at constant pressure,"19.75 K, Vacuum adiabatic calorimetry",14.6 ± 0.3 J/K/mol
same,molar heat capacity at constant pressure,20 K,14.89 ± 0.61 J/K/mol
same,molar heat capacity at constant pressure,"20.7 K, Vacuum adiabatic calorimetry",15.68 ± 0.32 J/K/mol
same,molar heat capacity at constant pressure,"21.36 K, Vacuum adiabatic calorimetry",16.44 ± 0.34 J/K/mol
same,molar heat capacity at constant pressure,"22.16 K, Vacuum adiabatic calorimetry",17.26 ± 0.35 J/K/mol
same,molar heat capacity at constant pressure,"23.02 K, Vacuum adiabatic calorimetry",18.27 ± 0.37 J/K/mol
same,molar heat capacity at constant pressure,"23.65 K, Vacuum adiabatic calorimetry",18.89 ± 0.39 J/K/mol
same,molar heat capacity at constant pressure,"24.72 K, Vacuum adiabatic calorimetry",20.07 ± 0.41 J/K/mol
same,molar heat capacity at constant pressure,25 K,20.35 ± 0.7 J/K/mol
same,molar heat capacity at constant pressure,"25.17 K, Vacuum adiabatic calorimetry",20.52 ± 0.42 J/K/mol
same,molar heat capacity at constant pressure,"26.45 K, Vacuum adiabatic calorimetry",21.86 ± 0.44 J/K/mol
same,molar heat capacity at constant pressure,"26.71 K, Vacuum adiabatic calorimetry",22.12 ± 0.45 J/K/mol
same,molar heat capacity at constant pressure,"27.26 K, Vacuum adiabatic calorimetry",22.45 ± 0.45 J/K/mol
same,molar heat capacity at constant pressure,"27.45 K, Vacuum adiabatic calorimetry",22.66 ± 0.46 J/K/mol
same,molar heat capacity at constant pressure,"28.26 K, Vacuum adiabatic calorimetry",23.73 ± 0.48 J/K/mol
same,molar heat capacity at constant pressure,"28.44 K, Vacuum adiabatic calorimetry",23.84 ± 0.48 J/K/mol
same,molar heat capacity at constant pressure,"29.84 K, Vacuum adiabatic calorimetry",25.29 ± 0.51 J/K/mol
same,molar heat capacity at constant pressure,30 K,25.41 ± 0.72 J/K/mol
same,molar heat capacity at constant pressure,"30.14 K, Vacuum adiabatic calorimetry",25.52 ± 0.51 J/K/mol
same,molar heat capacity at constant pressure,"31.75 K, Vacuum adiabatic calorimetry",26.93 ± 0.54 J/K/mol
same,molar heat capacity at constant pressure,"33.36 K, Vacuum adiabatic calorimetry",28.48 ± 0.57 J/K/mol
same,molar heat capacity at constant pressure,35 K,29.8 ± 0.82 J/K/mol
same,molar heat capacity at constant pressure,"35.01 K, Vacuum adiabatic calorimetry",29.81 ± 0.6 J/K/mol
same,molar heat capacity at constant pressure,"36.67 K, Vacuum adiabatic calorimetry",31.13 ± 0.63 J/K/mol
same,molar heat capacity at constant pressure,"38.35 K, Vacuum adiabatic calorimetry",32.76 ± 0.66 J/K/mol
same,molar heat capacity at constant pressure,40 K,33.67 ± 0.91 J/K/mol
same,molar heat capacity at constant pressure,"40.05 K, Vacuum adiabatic calorimetry",33.71 ± 0.68 J/K/mol
same,molar heat capacity at constant pressure,"41.77 K, Vacuum adiabatic calorimetry",34.97 ± 0.7 J/K/mol
same,molar heat capacity at constant pressure,"43.5 K, Vacuum adiabatic calorimetry",36.21 ± 0.73 J/K/mol
same,molar heat capacity at constant pressure,45 K,37.23 ± 0.99 J/K/mol
same,molar heat capacity at constant pressure,"45.25 K, Vacuum adiabatic calorimetry",37.39 ± 0.75 J/K/mol
same,molar heat capacity at constant pressure,"47.01 K, Vacuum adiabatic calorimetry",38.58 ± 0.78 J/K/mol
same,molar heat capacity at constant pressure,"48.78 K, Vacuum adiabatic calorimetry",39.8 ± 0.8 J/K/mol
same,molar heat capacity at constant pressure,50 K,40.59 ± 1.1 J/K/mol
same,molar heat capacity at constant pressure,"50.56 K, Vacuum adiabatic calorimetry",40.96 ± 0.82 J/K/mol
same,molar heat capacity at constant pressure,"52.36 K, Vacuum adiabatic calorimetry",42.15 ± 0.85 J/K/mol
same,molar heat capacity at constant pressure,"54.16 K, Vacuum adiabatic calorimetry",43.42 ± 0.87 J/K/mol
same,molar heat capacity at constant pressure,55 K,43.96 ± 1.1 J/K/mol
same,molar heat capacity at constant pressure,"55.98 K, Vacuum adiabatic calorimetry",44.6 ± 0.9 J/K/mol
same,molar heat capacity at constant pressure,"57.81 K, Vacuum adiabatic calorimetry",45.76 ± 0.92 J/K/mol
same,molar heat capacity at constant pressure,"59.64 K, Vacuum adiabatic calorimetry",46.96 ± 0.94 J/K/mol
same,molar heat capacity at constant pressure,60 K,47.18 ± 1.2 J/K/mol
same,molar heat capacity at constant pressure,"61.49 K, Vacuum adiabatic calorimetry",48 ± 0.96 J/K/mol
same,molar heat capacity at constant pressure,"63.34 K, Vacuum adiabatic calorimetry",48.9 ± 0.98 J/K/mol
same,molar heat capacity at constant pressure,65 K,49.1 ± 1.3 J/K/mol
same,molar heat capacity at constant pressure,"65.21 K, Vacuum adiabatic calorimetry",49.05 ± 0.99 J/K/mol
same,molar heat capacity at constant pressure,"67.11 K, Vacuum adiabatic calorimetry",48.13 ± 0.97 J/K/mol
same,molar heat capacity at constant pressure,"69.02 K, Vacuum adiabatic calorimetry",47.57 ± 0.96 J/K/mol
same,molar heat capacity at constant pressure,70 K,49.5 ± 1.3 J/K/mol
same,molar heat capacity at constant pressure,"70.93 K, Vacuum adiabatic calorimetry",51.84 ± 1 J/K/mol
same,molar heat capacity at constant pressure,"72.82 K, Vacuum adiabatic calorimetry",53.62 ± 1.1 J/K/mol
same,molar heat capacity at constant pressure,"74.71 K, Vacuum adiabatic calorimetry",54.48 ± 1.1 J/K/mol
same,molar heat capacity at constant pressure,75 K,54.63 ± 1.4 J/K/mol
same,molar heat capacity at constant pressure,"76.62 K, Vacuum adiabatic calorimetry",55.54 ± 1.1 J/K/mol
same,molar heat capacity at constant pressure,"78.53 K, Vacuum adiabatic calorimetry",57.23 ± 1.1 J/K/mol
same,molar heat capacity at constant pressure,80 K,58.6 ± 1.5 J/K/mol
same,molar heat capacity at constant pressure,"80.43 K, Vacuum adiabatic calorimetry",58.98 ± 1.2 J/K/mol
same,molar heat capacity at constant pressure,"82.34 K, Vacuum adiabatic calorimetry",59.82 ± 1.2 J/K/mol
same,molar heat capacity at constant pressure,"84.25 K, Vacuum adiabatic calorimetry",60.91 ± 1.2 J/K/mol
same,molar heat capacity at constant pressure,85 K,61.31 ± 1.5 J/K/mol
same,molar heat capacity at constant pressure,"86.17 K, Vacuum adiabatic calorimetry",61.94 ± 1.2 J/K/mol
same,molar heat capacity at constant pressure,"88.09 K, Vacuum adiabatic calorimetry",63.01 ± 1.3 J/K/mol
same,molar heat capacity at constant pressure,90 K,64.25 ± 2 J/K/mol
same,molar heat capacity at constant pressure,"90.01 K, Vacuum adiabatic calorimetry",64.26 ± 1.3 J/K/mol
same,molar heat capacity at constant pressure,"91.94 K, Vacuum adiabatic calorimetry",65.3 ± 1.3 J/K/mol
same,molar heat capacity at constant pressure,"93.72 K, Vacuum adiabatic calorimetry",66.04 ± 1.3 J/K/mol
same,molar heat capacity at constant pressure,"93.87 K, Vacuum adiabatic calorimetry",66.34 ± 1.3 J/K/mol
same,molar heat capacity at constant pressure,"93.99 K, Vacuum adiabatic calorimetry",65.67 ± 1.3 J/K/mol
same,molar heat capacity at constant pressure,95 K,66.91 ± 2 J/K/mol
same,molar heat capacity at constant pressure,"95.11 K, Vacuum adiabatic calorimetry",67.03 ± 1.4 J/K/mol
same,molar heat capacity at constant pressure,"95.8 K, Vacuum adiabatic calorimetry",67.7 ± 1.4 J/K/mol
same,molar heat capacity at constant pressure,"97.08 K, Vacuum adiabatic calorimetry",68.3 ± 1.4 J/K/mol
same,molar heat capacity at constant pressure,"97.74 K, Vacuum adiabatic calorimetry",68.54 ± 1.4 J/K/mol
same,molar heat capacity at constant pressure,"99.03 K, Vacuum adiabatic calorimetry",69.37 ± 1.4 J/K/mol
same,molar heat capacity at constant pressure,"99.68 K, Vacuum adiabatic calorimetry",69.74 ± 1.4 J/K/mol
same,molar heat capacity at constant pressure,100 K,69.96 ± 2.1 J/K/mol
same,molar heat capacity at constant pressure,"100.97 K, Vacuum adiabatic calorimetry",70.67 ± 1.4 J/K/mol
same,molar heat capacity at constant pressure,"102.92 K, Vacuum adiabatic calorimetry",71.57 ± 1.4 J/K/mol
same,molar heat capacity at constant pressure,"104.87 K, Vacuum adiabatic calorimetry",72.73 ± 1.5 J/K/mol
same,molar heat capacity at constant pressure,105 K,72.8 ± 2.1 J/K/mol
same,molar heat capacity at constant pressure,"106.82 K, Vacuum adiabatic calorimetry",73.77 ± 1.5 J/K/mol
same,molar heat capacity at constant pressure,"108.77 K, Vacuum adiabatic calorimetry",74.92 ± 1.5 J/K/mol
same,molar heat capacity at constant pressure,110 K,75.58 ± 2.2 J/K/mol
same,molar heat capacity at constant pressure,"110.72 K, Vacuum adiabatic calorimetry",75.98 ± 1.5 J/K/mol
same,molar heat capacity at constant pressure,"112.68 K, Vacuum adiabatic calorimetry",77.06 ± 1.6 J/K/mol
same,molar heat capacity at constant pressure,"114.63 K, Vacuum adiabatic calorimetry",78.14 ± 1.6 J/K/mol
same,molar heat capacity at constant pressure,"116.59 K, Vacuum adiabatic calorimetry",79.23 ± 1.6 J/K/mol
same,molar heat capacity at constant pressure,"118.55 K, Vacuum adiabatic calorimetry",80.35 ± 1.6 J/K/mol
same,molar heat capacity at constant pressure,120 K,81.21 ± 2.3 J/K/mol
same,molar heat capacity at constant pressure,"120.51 K, Vacuum adiabatic calorimetry",81.5 ± 1.6 J/K/mol
same,molar heat capacity at constant pressure,"122.47 K, Vacuum adiabatic calorimetry",82.44 ± 1.7 J/K/mol
same,molar heat capacity at constant pressure,"124.43 K, Vacuum adiabatic calorimetry",83.56 ± 1.7 J/K/mol
same,molar heat capacity at constant pressure,"126.39 K, Vacuum adiabatic calorimetry",84.65 ± 1.7 J/K/mol
same,molar heat capacity at constant pressure,"128.36 K, Vacuum adiabatic calorimetry",85.69 ± 1.7 J/K/mol
same,molar heat capacity at constant pressure,130 K,86.6 ± 2.4 J/K/mol
same,molar heat capacity at constant pressure,"130.32 K, Vacuum adiabatic calorimetry",86.79 ± 1.8 J/K/mol
same,molar heat capacity at constant pressure,"131.73 K, Vacuum adiabatic calorimetry",87.42 ± 1.8 J/K/mol
same,molar heat capacity at constant pressure,"132.15 K, Vacuum adiabatic calorimetry",87.41 ± 1.8 J/K/mol
same,molar heat capacity at constant pressure,"132.29 K, Vacuum adiabatic calorimetry",87.89 ± 1.8 J/K/mol
same,molar heat capacity at constant pressure,"133.36 K, Vacuum adiabatic calorimetry",88.24 ± 1.8 J/K/mol
same,molar heat capacity at constant pressure,"134.27 K, Vacuum adiabatic calorimetry",88.87 ± 1.8 J/K/mol
same,molar heat capacity at constant pressure,"135.34 K, Vacuum adiabatic calorimetry",89.35 ± 1.8 J/K/mol
same,molar heat capacity at constant pressure,"136.24 K, Vacuum adiabatic calorimetry",89.94 ± 1.8 J/K/mol
same,molar heat capacity at constant pressure,"137.31 K, Vacuum adiabatic calorimetry",90.43 ± 1.8 J/K/mol
same,molar heat capacity at constant pressure,"139.28 K, Vacuum adiabatic calorimetry",91.45 ± 1.8 J/K/mol
same,molar heat capacity at constant pressure,140 K,91.85 ± 2.5 J/K/mol
same,molar heat capacity at constant pressure,"141.25 K, Vacuum adiabatic calorimetry",92.54 ± 1.9 J/K/mol
same,molar heat capacity at constant pressure,"143.22 K, Vacuum adiabatic calorimetry",93.56 ± 1.9 J/K/mol
same,molar heat capacity at constant pressure,"145.19 K, Vacuum adiabatic calorimetry",94.64 ± 1.9 J/K/mol
same,molar heat capacity at constant pressure,"147.17 K, Vacuum adiabatic calorimetry",95.67 ± 1.9 J/K/mol
same,molar heat capacity at constant pressure,"149.14 K, Vacuum adiabatic calorimetry",96.7 ± 1.9 J/K/mol
same,molar heat capacity at constant pressure,150 K,97.11 ± 2.6 J/K/mol
same,molar heat capacity at constant pressure,"151.11 K, Vacuum adiabatic calorimetry",97.64 ± 2 J/K/mol
same,molar heat capacity at constant pressure,"153.09 K, Vacuum adiabatic calorimetry",98.81 ± 2 J/K/mol
